Results as given in patent US20230134986A1, “GLUCOSE TRIPTOLIDE CONJUGATES AND USES THEREOF” (The Johns Hopkins University, priority 2020, published 2023).

How the values were obtained:
HEK 293T cells = test: HEK293T cell proliferation assay ([3H]-thymidine incorporation); format: cell-based, human; conditions: Homo sapiens; anti-proliferative activity, HEK 293T cells, 24 h drug exposure; read-out: IC50 ± SEM
Text: Cells and culture conditions. Primary astrocytes (Lonza, Walkersville, Md.; ABM™ Basal Media with AGM™ SingleQuots™ Supplement Pack), fibroblast (ATCC; Fibroblast Basal Medium (ATCC© PCS-201-030™) with Fibroblast Growth Kit-Serum-free (ATCC© PCS-201-040™)), airway epithelial cell (ATCC; Airway Epithelial Cell Basal Medium (ATCC© PCS-300-030™) with Bronchial Epithelial Cell Growth Kit (ATCC© PCS-300-040™)), renal proximal tubule (ATCC; Renal Epithelial Cell Basal Medium (ATCC© PCS-400-030™) with Renal Epithelial Cell Growth Kit (ATCC© PCS-400-040™)), prostate epithelial cell (Lonza; PrEGM™ BulletKit™) and mammary epithelial cell (Lonza; MEBM™ BulletKit™) were kept in a humidified incubator at 37° C. adjusted to 5% CO2. Prostate (PC3, LNCaP, DU-145), breast (MDA-MB-231, MDA-MB-453, SK-BR-3), head and neck (A253, Detroit 562, SCC-25), melanoma (SK-Mel-3, SK-Mel-1, RPMI-7951), pancreatic (CfPAC-1, BxPC3, SW1990), lung (A549, NCI-H1299, NCI-H1437) and liver (SNU-475, SK-HEP-1, SNU-387) cancer cell lines were obtained from ATCC and cultured in their respective media (prostate cells: RPMI-1640, MDA-MB-231: RPMI-1640, MDA-MB-453: Leibovitz's L-15, SK-BR-3: McCoy's 5a, A253: McCoy's 5a, Detroit 562: EMEM, SCC-25: DMEM, SK-Mel-3: McCoy's 5a, SK-Mel-1: EMEM, RPMI-7951: EMEM), CfPAC-1: IMDM, BxPC3: RPMI-1640, SW1990: Leibovitz's L-15), A549: F-12K, NCI-H1299: RPMI-1640, NCI-H1437: RPMI-1640, SNU-475: RPMI-1640, SK-HEP-1: EMEM, SNU-387: RPMI-1640. All media were supplemented with 10% (vol/vol) filtered fetal bovine serum (FBS, Invitrogen, Carlsbad, Calif.), 1% penicillin/streptomycin (Invitrogen) and maintained in a humidified incubator at 37° C. with 5% CO2 except for MDA-MB-453 and SW1990 grown at 37° C. without CO2 control. Wild type (ATCC) and C342T XPB knock-in cells (named T7115) of Human Embryonic Kidney 293T (HEK293T), HeLa (ATCC) were cultured in DMEM (GIBCO) with 10% (vol/vol) filtered fetal bovine serum (FBS, Invitrogen, Carlsbad, Calif.), 1% penicillin/streptomycin (Invitrogen).
(§1) Proliferation and viability assays. [^3H]-thymidine incorporation. HEK293T cells (10,000 cells/well) were seeded into 96-well plates then cultured in DMEM plus 10% FBS and 1% penicillin/streptomycin at 37° C. with 5% CO2 overnight. Drugs were added at indicated concentrations and incubation was continued for an additional 24 h. For hypoxia, PC3 (5,000 cells/well) were exposed to 1% O2 (Airgas) in a humidified hypoxia chamber (Billups-Rothenberg) in 37° C. for 48 h prior to drug exposure for 48 h. Treated cells were then pulsed using an aliquot of 1 μCi of [^3H]-thymidine (Perkin Elmer) per well for an additional 6 h. Radiolabelled cells were harvested onto a printed Filtermat A glass fiber filter (Perkin Elmer) using a Tomtec Harvester 96 Mach III M. Betaplate Scint (Perkin Elmer) scintillation fluid was added to radiolabelled filters followed by scintillation counting on Microbeta2 LumiJET Microplate Counter (Perkin Elmer).

[1] = cited from earlier work
[2] = test system: RPB1 (RNAPII) in PC3 cells; test: RPB1 degradation in PC3 cells under hypoxia, immunocytochemistry and western blot; format: cell-based, human; conditions: PC3, hypoxic (1% O2), 10 mM WZB117 plus 3 mM compound 1 (so in the source); μM)
Protocol: (§2) Western blot analysis. Whole cell lysates were prepared by adding lysis buffer [4% SDS, 20% glycerol, 10% 2-mercaptoethanol, 0.004% bromophenol blue, 0.125 M Tris-HCl (pH 6.8)] to the cell pellets for 30 minutes in ice followed by centrifugation at 12,000×g for 10 minutes then boiling for 5 minutes. For isolation of cytosolic and mitochondrial fractions of cytochrome C, cell pellets were resuspended in CLAMI buffer (250 mM sucrose, 70 mM KCl, […] digitonin in 1×PBS, protease inhibitor cocktail (1 tablet/10 ml CLAMI buffer)) then incubated on ice for 5 minutes. After centrifugation at 12,000×g for 5 minutes at 4° C., supernatant (cytoplasmic fraction) was collected and the pellet resuspended in lysis buffer as described above. Proteins were then separated by SDS-PAGE and transferred to nitrocellulose membranes (Bio-Rad). […] Antibody-protein complexes were detected using enhanced chemiluminescence (ECL) immunoblotting detection reagent (EMD Millipore).
(§3) Immunocytochemistry and cytochemistry. […] Glucose uptake was monitored by incubating cells in 200 μM 2-NBDG (ThermoFisher) for 6 hours prior to fixation. Fluorescence was observed under the Nikon Eclipse TE200 Inverted microscope (Nikon Instruments Inc., Melville, N.Y., USA). […] Rpb1 levels were measured using the MEASURE feature of ImageJ where all the background signals were subtracted from the intergrated density of nuclear Rpb1.

PC3 cells = test: PC3 proliferation under hypoxia or normoxia ([3H]-thymidine incorporation); format: cell-based, human; conditions: hypoxia versus normoxia
Protocol: as §1

[3] = test system: RPB1 (catalytic subunit of RNAPII); test: RPB1 (RNAPII) degradation in HeLa cells, immunostaining and western blot; format: cell-based, human
Protocol: (§4) Western blot analysis. Whole cell lysates were prepared by adding lysis buffer [4% SDS, 20% glycerol, 10% 2-mercaptoethanol, 0.004% bromophenol blue, 0.125 M Tris-HCl (pH 6.8)] to the cell pellets for 30 minutes in ice followed by centrifugation at 12,000×g for 10 minutes then boiling for 5 minutes. For isolation of cytosolic and mitochondrial fractions of cytochrome C, cell pellets were resuspended in CLAMI buffer (250 mM sucrose, 70 mM KCl, […] digitonin in 1×PBS, protease inhibitor cocktail (1 tablet/10 ml CLAMI buffer)) then incubated on ice for 5 minutes. After centrifugation at 12,000×g for 5 minutes at 4° C., supernatant (cytoplasmic fraction) was collected and the pellet resuspended in lysis buffer as described above. Proteins were then separated by SDS-PAGE and transferred to nitrocellulose membranes (Bio-Rad). After blocking at room temperature for 1 h, membranes were incubated at 4′C overnight with the primary antibodies including anti-Rpb1 (Santa Cruz Biotechnology), anti-XPB (Biotechne), anti-Actin (Developmental Studies Hybridoma Bank), anti-GAPDH (Santa Cruz Biotechnology), anti-cytochrome C (Santa Cruz Biotechnology), anti-PARP1 (Santa Cruz Biotechnology), anti-cleaved caspase 3 (Cell Signaling Technology), anti-VDAC (ProteinTech), anti-HIF-1[…] (BD sciences), and anti-GLUT1 (Santa Cruz Biotechnology) antibodies followed by incubation with horseradish peroxidase-conjugated anti-mouse or anti-rabbit IgG (GE Healthcare) at room temperature for 2 hours. Antibody-protein complexes were detected using enhanced chemiluminescence (ECL) immunoblotting detection reagent (EMD Millipore).
as §3

XPB = target: T1, XPB (Homo sapiens, UniProt P19447); test: XPB degradation in cells, western blot; format: cell-based; conditions: 10 mM SP (so in the source)
T1 construct: spironolactone induces the degradation of endogenous XPB in cells; endogenous in cells
Protocol: as §2

HeLa cells = test: Apoptosis signaling in HeLa cells (nuclear fragmentation, cytochrome c, caspase 3, PARP1); format: cell-based, human; conditions: co-treatment with higher concentrations of SP
Protocol: as §4
Immunocytochemistry and cytochemistry. HeLa or PC3 cells (2×10^5) were seeded on a MatTek glass bottom culture dish (Fisher Scientific, Pittsburgh, Pa., USA) and allowed to adhere for 24 h. Cells were then treated with either DMSO or drugs for 6 or 24 h then fixed with 4% paraformaldehyde, permeabilized using 1×PBS with 0.5% triton X 100 then probed for endogenous RNA Polymerase II catalytic subunit Rpb1 or HIF-1α using anti-RNAPII (Santa Cruz Biotechnology) and anti-HIF-1α (BD sciences) antibodies, respectively. Detection was then done using anti-mouse Alexa Fluor 488 (Invitrogen). For nuclear staining, fixed and permeabilized cells were incubated in DAPI (ThermoFisher) or Hoechst 33258 (Sigma) for 30 minutes prior to imaging. Glucose uptake was monitored by incubating cells in 200 μM 2-NBDG (ThermoFisher) for 6 hours prior to fixation. Fluorescence was observed under the Nikon Eclipse TE200 Inverted microscope (Nikon Instruments Inc., Melville, N.Y., USA). ImageJ software (NIH, Bethesda, Md., USA; http://imagej.nih.gov/ij/index.html) was used to measure intracellular protein levels in immuno-cytochemistry samples (Li et al. (2015) Toxicological Sciences: an Official Journal of the Society of Toxicology 143:196-208). Rpb1 levels were measured using the MEASURE feature of ImageJ where all the background signals were subtracted from the intergrated density of nuclear Rpb1.

[4] = lethal case dosed with 18 mg/m2 F60008

T1 sequence (P19447 whole entry): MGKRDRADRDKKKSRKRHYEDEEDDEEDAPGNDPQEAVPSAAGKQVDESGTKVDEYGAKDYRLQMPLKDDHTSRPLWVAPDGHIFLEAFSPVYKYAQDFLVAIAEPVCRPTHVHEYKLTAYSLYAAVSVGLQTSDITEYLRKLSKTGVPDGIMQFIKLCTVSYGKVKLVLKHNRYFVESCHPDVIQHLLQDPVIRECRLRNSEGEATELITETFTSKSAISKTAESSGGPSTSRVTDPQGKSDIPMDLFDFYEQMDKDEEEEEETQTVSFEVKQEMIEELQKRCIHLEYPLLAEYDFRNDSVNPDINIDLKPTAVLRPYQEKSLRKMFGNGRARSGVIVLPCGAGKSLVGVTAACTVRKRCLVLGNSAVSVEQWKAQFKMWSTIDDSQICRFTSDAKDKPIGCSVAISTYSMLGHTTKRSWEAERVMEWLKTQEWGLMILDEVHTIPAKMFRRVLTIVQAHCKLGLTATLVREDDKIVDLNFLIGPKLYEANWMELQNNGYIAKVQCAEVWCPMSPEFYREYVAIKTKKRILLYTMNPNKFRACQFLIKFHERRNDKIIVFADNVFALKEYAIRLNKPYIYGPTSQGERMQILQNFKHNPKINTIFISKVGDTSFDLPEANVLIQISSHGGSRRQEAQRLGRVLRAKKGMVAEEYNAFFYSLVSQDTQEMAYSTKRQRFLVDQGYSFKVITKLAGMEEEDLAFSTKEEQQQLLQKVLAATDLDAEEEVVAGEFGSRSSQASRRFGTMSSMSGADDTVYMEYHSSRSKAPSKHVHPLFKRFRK

Question: Which IC50 (HEK 293T cells) does the source give for `CC(C)[C@]12O[C@H]1[C@@H]1O[C@]13[C@]1(O[C@H]1C[C@H]1C4=C(CC[C@@]13C)C(=O)OC4)[C@@H]2OC(=O)CC(C)(C)C(=O)O[C@@H]1OC(CO)[C@@H](O)C(O)C1O` (stereo partly drawn) [Compound 2] here?
Answer: 3305 ± 0.98 nM

Question: For `CC(C)[C@]12O[C@H]1[C@@H]1O[C@]13[C@]1(O[C@H]1C[C@H]1C4=C(CC[C@@]13C)C(=O)OC4)[C@@H]2OC(=O)CC(C)(C)C(=O)O[C@H]1OC(CO)[C@@H](O)C(O)C1O` (stereo partly drawn) [Compound 3], which IC50 (HEK 293T cells) is on record?
Answer: 999 ± 0.217 nM

Question: With `CC(C)[C@]12O[C@H]1[C@@H]1O[C@]13[C@]1(O[C@H]1C[C@H]1C4=C(CC[C@@]13C)C(=O)OC4)[C@@H]2OC(=O)c1ccccc1C(=O)O[C@@H]1OC(CO)[C@@H](O)C(O)C1O` (stereo partly drawn) [Compound 4] as the compound, how does the IC50 (HEK 293T cells) read?
Answer: 5888 ± 1.19 nM

Question: With `CC(C)[C@]12O[C@H]1[C@@H]1O[C@]13[C@]1(O[C@H]1C[C@H]1C4=C(CC[C@@]13C)C(=O)OC4)[C@@H]2OC(=O)c1ccccc1C(=O)O[C@H]1OC(CO)[C@@H](O)C(O)C1O` (stereo partly drawn) [Compound 5] as the compound, how does the IC50 (HEK 293T cells) read?
Answer: 6667 ± 2.03 nM

Question: Which IC50 (HEK 293T cells) does the source give for `CC(C)[C@]12O[C@H]1[C@@H]1O[C@]13[C@]1(O[C@H]1C[C@H]1C4=C(CC[C@@]13C)C(=O)OC4)[C@@H]2OC(=O)CCCC(=O)O[C@@H]1OC(CO)[C@@H](O)C(O)C1O` (stereo partly drawn) [Compound 6] here?
Answer: 1134 ± 1.15 nM

Question: Which IC50 (HEK 293T cells) does the source give for `CC(C)[C@]12O[C@H]1[C@@H]1O[C@]13[C@]1(O[C@H]1C[C@H]1C4=C(CC[C@@]13C)C(=O)OC4)[C@@H]2OC(=O)CCCC(=O)O[C@H]1OC(CO)[C@@H](O)C(O)C1O` (stereo partly drawn) [Compound 7] here?
Answer: 735 ± 1.11 nM

Question: With `CC(C)[C@]12O[C@H]1[C@@H]1O[C@]13[C@]1(O[C@H]1C[C@H]1C4=C(CC[C@@]13C)C(=O)OC4)[C@@H]2OC(=O)CCC(=O)OCC1OC(O)C(O)C(O)[C@@H]1O` (stereo partly drawn) [Compound 8] as the compound, how does the IC50 (HEK 293T cells) read?
Answer: 244 ± 0.81 nM

Question: For `CO[C@H]1OC(COC(=O)CCC(=O)O[C@@H]2[C@@]3(C(C)C)O[C@H]3[C@@H]3O[C@]34[C@]23O[C@H]3C[C@H]2C3=C(CC[C@@]24C)C(=O)OC3)[C@@H](O)C(O)C1O` (stereo partly drawn) [Compound 9], which IC50 (HEK 293T cells) is on record?
Answer: 395 ± 0.523 nM

Question: With `CC(C)C12OC1C1OC13C1(C)CCC4=C(COC4=O)C1CC1OC13C2OC(=O)CCC(=O)O` (stereo not drawn) [Compound F60008, triptolide-succinate] as the compound, how does the lethality in patients ([1]; administered with <12 mg/m^2 F60008) read?
Answer: no lethality was observed in 18 of the 20 patients

Question: What about the “lethality in early human clinical study” value ([1]; highest dose of therapy) of the same compound?
Answer: lethal to two patients

Question: What about the Maximum serum levels [1, 4] of the same compound?
Answer: 1,361 ng/mL

Question: What about the “Maximum serum levels (molar)” value [1, 4] of the same compound?
Answer: ~2.96 mM

Question: For `O=C(Oc1cccc(F)c1OC(=O)c1cccc(O)c1)c1cccc(O)c1` [WZB117, reference compound], which “effect on compound 1-induced RNAPII degradation” value [2] is on record?
Answer: abolished the rapid degradation of endogenous RNAPII

Question: Which “change of potency under hypoxia” value (PC3 cells) does the source give for `COc1cccc2c1C(=O)c1c(O)c3c(c(O)c1C2=O)C[C@@](O)(C(=O)CO)C[C@@H]3O[C@H]1C[C@H](N)[C@H](O)[C@H](C)O1` [doxorubicin] here?
Answer: decreased

Question: For `CC(=O)S[C@@H]1CC2=CC(=O)CC[C@]2(C)[C@H]2CC[C@@]3(C)[C@@H](CC[C@@]34CCC(=O)O4)[C@H]12` [spironolactone], which “endogenous RNAPII (RPB1) level” value ([3]; 10 mM spironolactone alone (so in the source); 10 μM)) is on record?
Answer: do not affect protein levels

Question: What about the “rescue of RNAPII from compound 1-induced degradation” value ([3]; pre-treatment with 10 mM spironolactone (so in the source), then 1 mM compound 1) of the same compound?
Answer: rescues endogenous RNAPII

Question: And the “degradation of XPB” value (XPB)?
Answer: caused degradation of the majority of XPB

Question: And the “effect on compound 1-induced PARP1 cleavage” value (HeLa cells)?
Answer: prevented PARP1 cleavage
